From PMC10017027, “Design and Synthesis of Novel HIV-1 NNRTIs with Bicyclic Cores and with Improved Physicochemical Properties” (Journal of Medicinal Chemistry, 2023)
Values after ≈ are worked out from the molar mass of the structure shown. Like-named read-outs stand apart in the source and are kept apart here.

Experiments:
HIV-1 HXB2 Y181C variant = test: MT-4 antiviral cytopathic effect assay, HXB2-Y181C; assay type: cell-based; settings: for EC50: Human immunodeficiency virus 1, HXB2, read-out: EC50 Y181C
Protocol: (§1) The prepared compounds were tested for their anti-HIV-1 activity (Table 1). A viral cytopathic effect assay in MT-4 cells with HIV-1 IIIB virus was used to determine compound potency (EC50, 50% cell viability) in protecting virus induced cell killing. Compound cytotoxicity was assessed in MT-4 cells in the absence of virus (CC50, 50% cytotoxicity). […] ETV contains bromo and amino substitutions on the DAPY core. […] Likely, with the smaller cyano arm I in 1, 3, and 5, the cores could be further elaborated to optimize the compound position in the pocket and to improve potency.
(§2) Compounds were tested in a high-throughput 384-well assay format for their ability to inhibit the virus replication-induced cytopathic effect in MT-4 cell cultures acutely infected with HIV-1 (IIIB strain), HXB2, HXB2-K103N, and HXB2-Y181C. Compounds were serially diluted (1:3) in DMSO on 384-well polypropylene plates and further diluted 200-fold into complete RPMI media (10% FBS, 1% P/S) using Biotek Micro Flow and an Agilent ECHO acoustic dispenser. Each plate contained up to eight test compounds, with negative (no drug control) and 5 μM AZT positive controls. MT-4 cells were further diluted in complete RPMI media and added to each plate using a Micro-Flo dispenser. After five days of incubation in a humidified and temperature-controlled incubator (37 °C), Cell Titer Glo (Promega) was added to the assay plates to quantify the amount of […]. EC50 and CC50 values were defined as the compound concentration that causes a 50% decrease in luminescence signal and were calculated using a sigmoidal dose-response model to generate curve fits.

[1] = Predicted clearance in human liver microsomes; assay type: in vitro ADME; settings: pH 7.4, 1 μM compound, read-out: HLM CLint, pred (converted)
Protocol: Next, microsome stability was profiled in purified human liver microsomes (HLM).
Metabolic stability of compounds was assessed using HLM (Corning cat. 457117).[52] In this assay, 10 nL compounds at a concentration of 1 mM in 100% DMSO are dispensed into 384-well polypropylene plates using the Echo 550 acoustic liquid dispenser (Labcyte). Each plate contains 384 wells with a single test compound in each well.
A solution of HLM at 2 mg/mL in 100 mM K2HPO4/KH2PO4 pH 7.4 with 0.0225 mg/mL Alamethicin from Trichoderma viride (Sigma-Aldrich cat. A4665-10MG) was incubated on ice for 15 min. 5 μL of this solution was added to individual wells following 15 min incubation at room temperature; and supplemented with 5 μL NADPH Regenerating Solution of cofactors (Corning Gentest UGT Reaction Mix solutions A and B, cat. 451200 and 451220) containing 100 mM K2HPO4/KH2PO4 pH 7.4, 2.6 mM NADP^+, 6.6 mM glucose-6-phosphate, 6.6 mM MgCl2, 0.8 U/mL glucose-6-phosphate dehydrogenase, 0.1 mM sodium citrate, and 6.8 mM uridine diphosphate-glucuronic acid. The final concentration of analyte compounds at the beginning of the reactions was 1 μM. The reactions were incubated at 37 °C, and time points of 0, 5, 15, 30, 40, 50, 60, and 70 min were collected for further analysis. Background data were collected using reactions without analyte compounds.
Upon collection of the reaction time points, samples were quenched at the set time points with 30 μL of a solution of 72% acetonitrile, 8% methanol, 0.1% formic acid, 19.9% water, and labetalol as an internal standard (IS) at a concentration of 650 nM. Reaction plates were span in a centrifuge at a speed of 4000 rcf for 30 min and 4 °C, following a dilution of the 10 μL quenched reaction into 40 μL de-ionized water, yielding assay plates.
Samples were analyzed by a solid-phase extraction coupled with a quadrupole time-of-flight mass spectrometer, using an Agilent QToF 6530 RapidFire 360 system with C4 type A solid state cartridges. Analysis was performed in either positive or negative ionization modes. Mobile phases contained 0.1% formic acid in water for loading analytes onto solid state extraction cartridges, and 0.1% formic acid in acetonitrile for elution into the mass spectrometer in positive ionization mode, or 0.1% acetic acid in water for loading and 0.1% acetic acid in acetonitrile for extraction in negative ionization mode. Peak-area ratios of integrated counts for individual compounds to IS were plotted as a semi-logarithmic chart of log versus time. Initial, linear portion of decay was fitted to a linear regression equation to derive the half-time of a compound decay.
Pharmacological parameters for an analyte compound metabolism were calculated using the equations described in Table S2.
Table S2. Pharmacological parameters for an analyte compound metabolism were
calculated using the following equations:
Intrinsic Clearance (in Cl = ln 2
int, in vitro T1/2 ∗ Conc
Intrinsic Clearance Cl = Clint, in vitro ∗ Liver Mass ∗ Yield
Predicted Hepatic Cl = Clint ∗ QH
QH (Hepatic Blood Flow) = 1.3 L/hr/kg

[2] = Solubility assessment, shake-flask method; assay type: physicochemical; settings: for solubility: shake-flask; for HCl sol / PBS sol: supplement CSV
Protocol: Compound solubility was measured at Analiza (Cleveland, OH) by the standard shake-flask method at pH 1.2 and 7.4 and quantitated by HPLC-UV.

in vitro = assay type: cell-based; settings: human
Protocol: as §1, §2

HIV-1 HXB2 K103N variant = test: MT-4 antiviral cytopathic effect assay, HXB2-K103N; assay type: cell-based; settings: for EC50: Human immunodeficiency virus 1, HXB2, read-out: EC50 K103N
Protocol: as §1, §2

HIV-1 (IIIB strain) = test: MT-4 antiviral cytopathic effect assay, HIV-1 IIIB; assay type: cell-based; settings: for EC50: Human immunodeficiency virus 1, IIIB, MT4, protects 50% of MT-4 cells against HIV-1-induced cell killing, HIV-1 IIIB, WT, read-out: EC50 MT4
Protocol: (§3) The prepared compounds were tested for their anti-HIV-1 activity (Table 1). A viral cytopathic effect assay in MT-4 cells with HIV-1 IIIB virus was used to determine compound potency (EC50, 50% cell viability) in protecting virus induced cell killing. Compound cytotoxicity was assessed in MT-4 cells in the absence of virus (CC50, 50% cytotoxicity).
as §2

[3] = MDCK permeability assay (A to B); assay type: in vitro ADME, Canine; settings: dog, MDCK
Text: Compounds were further tested in a Madin–Darby Canine Kidney (MDCK) assay to evaluate their potential for oral absorption. […] Additionally, there was no trend for better permeability when comparing arm I versus arm II when matched with the same core. The size of the B ring had the greatest influence on Papp with the trend being five-membered > six-membered > seven-membered rings (Table 1).
cMdr1-KO cells were maintained in Dulbecco’s modified Eagle’s medium (DMEM) with sodium pyruvate and GlutaMax, supplemented with 1% Pen/Strep and 10% fetal bovine serum in an incubator set at 37 °C, 90% humidity, and 5% CO2. MDCKII- cMdr1-KO cells were grown to confluence over 3 days on 96-well PET plates with 1 μm pore size, polyester membrane (Corning 3392). Experiments were run using HBSS donor buffer from Invitrogen containing an additional 10 mM HEPES, 15 mM glucose, and 0.1% BSA adjusted to pH 7.4. The receiver well had HBSS buffer supplemented with 1% BSA, 10 mM HEPES, 15 mM glucose, and the pH was adjusted to 7.4. TEER values were read to test membrane integrity at the beginning of the assay. The experiment was started by the addition of dosing solutions containing test compounds. Samples were taken from the donor compartment at 0/120 min and from the receiver compartment at 120 min. Each compound was tested in two separate replicate wells. All samples were immediately collected in a 72:8:20 MeCN/MeOH:H2O mix to precipitate protein and stabilize the test compounds. Cells were dosed on the apical side to determine forward (A to B) permeability. To test for non-specific binding and compound instability, the total amount of drug was quantified at the end of the experiment and compared to the material present in the original dosing solution as a percentage of recovery. Samples were analyzed by RF-QToF.

HIV-1 HXB2 = test: MT-4 antiviral cytopathic effect assay, HXB2 wild-type virus; assay type: cell-based; settings: Human immunodeficiency virus 1, MT4; HIV-1 HXB2 wild-type, MT-4 cells; read-out: EC50 HXB2
Protocol: as §3, §2

[4] = fold change: ratio of potency against HXB2 Y181C and parental HXB2
[5] = supplement CSV, fold change vs HXB2
[6] = HCl, pH 1.2, read-out: solubility HCl
[7] = phosphate-buffered saline, pH 7.4, read-out: solubility PBS
[8] = fold change: ratio of potency against HXB2 K103N and parental HXB2
[9] = apparent permeability coefficient, A to B, pH 7.4
[10] = preliminary biological data, in words

## Cc1cc(C#N)cc(C)c1-n1c(=O)[nH]c2cnc(Nc3ccc(C#N)cc3)nc21 [Compound 1, 4-{2-[(4-Cyanophenyl)amino]-8-oxo-8,9-dihydro-7H-purin-9-yl}-3,5-dimethylbenzonitrile]
HIV-1 HXB2 Y181C variant
  EC50: 241 nM
HIV-1 HXB2 Y181C variant; [4]
  Y181C (FC): 3.3
HIV-1 HXB2 Y181C variant; [5]
  Y181C (FC): 3.3
[1]
  CLint scaled at 1.167 h, 1 µM: 8.83 mL/min/kg
[2]; [6]
  solubility: 73.2 µM (≈ 27.9 µg/mL)
[2]; [7]
  solubility: 6.6 µM (≈ 2.52 µg/mL)
[2]
  HCl sol: 73.2 µM
  PBS sol: 6.6 µM
In vitro
  CC50 at 120 h: 43700 nM
HIV-1 HXB2 K103N variant
  EC50: 230 nM
HIV-1 HXB2 K103N variant; [8]
  K103N (FC): 3.1
HIV-1 HXB2 K103N variant; [5]
  K103N (FC): 3.1
HIV-1 (IIIB strain)
  EC50: 62.3 nM
[3]; supplement CSV
  Papp A→B at 120 min: 4.9 ×10⁻⁶ cm/s
[3]; [9]
  Papp A→B at 120 min: 4.9 ×10⁻⁶ cm/s
HIV-1 HXB2
  EC50: 73.7 nM

## Cc1cc(/C=C/C#N)cc(C)c1-n1c(=O)[nH]c2cnc(Nc3ccc(C#N)cc3)nc21 [Compound 2, 4-[(9-{4-[(1E)-2-Cyanoeth-1-en-1-yl]-2,6-dimethylphenyl}-8-oxo-8,9-dihydro-7H-purin-2-yl)amino]benzonitrile]
HIV-1 HXB2 Y181C variant
  EC50: 10.6 nM
HIV-1 HXB2 Y181C variant; [4]
  Y181C (FC): 4.8
HIV-1 HXB2 Y181C variant; [5]
  Y181C (FC): 4.8
[1]
  CLint scaled at 1.167 h, 1 µM: 16.7 mL/min/kg
[2]; [6]
  solubility: 61.2 µM (≈ 24.9 µg/mL)
[2]; [7]
  solubility: 10.4 µM (≈ 4.24 µg/mL)
[2]
  HCl sol: 61.2 µM
  PBS sol: 10.4 µM
In vitro
  CC50 at 120 h: 23300 nM
HIV-1 HXB2 K103N variant
  EC50: 4.5 nM
HIV-1 HXB2 K103N variant; [8]
  K103N (FC): 2.0
HIV-1 HXB2 K103N variant; [5]
  K103N (FC): 2.0
HIV-1 (IIIB strain)
  EC50: 2.5 nM
[3]; supplement CSV
  Papp A→B at 120 min: 5.6 ×10⁻⁶ cm/s
[3]; [9]
  Papp A→B at 120 min: 5.6 ×10⁻⁶ cm/s
HIV-1 HXB2
  EC50: 2.2 nM

## Cc1cc(Br)cc(C)c1N1CC(=O)Nc2cnc(Nc3ccc(C#N)cc3)nc21 [Compound 14, 4-{[8-(4-Bromo-2,6-dimethylphenyl)-6-oxo-5,6,7,8-tetrahydropteridin-2-yl]amino}benzonitrile]
HIV-1 HXB2 Y181C variant; [10]
  potency against Y181C mutated strain: high potency
[2]; preliminary data, in words
  aqueous solubility: significantly improved
HIV-1 HXB2 K103N variant; [10]
  potency against K103N mutated strain: high potency
HIV-1 (IIIB strain); [10]
  activity against the WT virus: low nanomolar activity

## Cc1cc(CO)cc(C)c1N1CC(=O)Nc2cnc(Nc3ccc(C#N)cc3)nc21 [Compound 28, 4-({8-[4-(hydroxymethyl)-2,6-dimethylphenyl]-6-oxo-5,6,7,8-tetrahydropteridin-2-yl}amino)benzonitrile]
In vitro
  CC50 at 120 h: 41600 nM
HIV-1 (IIIB strain)
  EC50: 78.9 nM

## Cc1cc(CO)cc(C)c1-n1c(=O)[nH]c2cnc(Nc3ccc(C#N)cc3)nc21 [Compound 32, 4-({9-[4-(Hydroxymethyl)-2,6-dimethylphenyl]-8-oxo-8,9-dihydro-7H-purin-2-yl}amino)benzonitrile]
In vitro
  CC50 at 120 h: 39700 nM
HIV-1 (IIIB strain)
  EC50: 174 nM

## Cc1cc(CO)cc(C)c1N1CCC(=O)Nc2cnc(Nc3ccc(C#N)cc3)nc21 [Compound 39, 4-({9-[4-(hydroxymethyl)-2,6-dimethylphenyl]-6-oxo-5H,6H,7H,8H,9H-pyrimido[4,5-b][1,4]diazepin-2-yl}amino)benzonitrile]
In vitro
  CC50 at 120 h: 15900 nM
HIV-1 (IIIB strain)
  EC50: 198 nM

## Cc1cc(C=O)cc(C)c1-n1c(=O)[nH]c2cnc(Nc3ccc(C#N)cc3)nc21 [Compound 40, 4-{[9-(4-Formyl-2,6-dimethylphenyl)-8-oxo-8,9-dihydro-7H-purin-2-yl]amino}benzonitrile]
In vitro
  CC50 at 5 days: > 50000 nM
HIV-1 (IIIB strain)
  EC50: 209 nM

## Cc1cc(C=O)cc(C)c1N1CC(=O)Nc2cnc(Nc3ccc(C#N)cc3)nc21 [Compound 41, 4-{[8-(4-Formyl-2,6-dimethylphenyl)-6-oxo-5,6,7,8-tetrahydropteridin-2-yl]amino}benzonitrile]
In vitro
  CC50 at 120 h: 14200 nM
HIV-1 (IIIB strain)
  EC50: 76.7 nM

## Cc1cc(C=O)cc(C)c1N1CCC(=O)Nc2cnc(Nc3ccc(C#N)cc3)nc21 [Compound 42, 4-{[9-(4-Formyl-2,6-dimethylphenyl)-6-oxo-5H,6H,7H,8H,9H-pyrimido[4,5-b][1,4]diazepin-2-yl]amino}benzonitrile]
In vitro
  CC50 at 120 h: 5000 nM
HIV-1 (IIIB strain)
  EC50: 94.3 nM
